Experimental data from patent US20180185408A1, “ANTIFUNGAL NYLON-3 POLYMERS AND COMBINATION THERAPY USING THEM TO TREAT FUNGAL INFECTIONS” (priority 2016, published 2018).
In brackets after ≈: the same amount, converted by molar mass. Several values for one entry are separate records, joined by “and”; a condition that tells them apart may be missing. Equal values may be shown once. Read-outs that look alike come from different tables or passages of the source.

Experiments:
[1] = system: Pseudogymnoascus destructans; assay: MIC100 against dermatophytes (conidia, 12°C, seven days); type: cell-based; conditions: Pseudogymnoascus destructans isolate ATC MYA-4855
Procedure: (§1) The final group of fungi tested for sensitivity to nylon-3 polymers were dermatophytes. In contrast to the other filamentous fungi tested, three of these isolates were evaluated following a modified version of the CLSI M38-A methodology (using hyphal fragments in liquid culture, because of difficulties in obtaining conidia). […] Mixed efficacy of the nylon-3 polymers was observed across the four species of dermatophytes tested. […] The activity against P. destructans, the causative agent of White Nose syndrome in bats, and just one of many emerging fungal pathogens threatening wildlife is encouraging because there are few options at present for preventing the spread of this devastating pathogen. The facility with which nylon-3 polymers can be modified could provide opportunities for the development of topical agents with high specificity for particular fungi.

[2] = system: Aspergillus spp.; assay: microbe, parasite or virus in culture
[3] = system: Trichophyton rubrum; assay: MIC100 against dermatophytes (modified CLSI M38-A); type: cell-based; conditions: ATCC28188; Trichophyton rubrum isolate ATCC 28188
Procedure: as §1

[4] = system: Trichophyton tonsurans; assay: MIC100 against dermatophytes (modified CLSI M38-A); type: cell-based; conditions: CBS112818; Trichophyton tonsurans isolate CBS 112818
Procedure: as §1

[5] = system: Microsporum canis; assay: MIC100 against dermatophytes (modified CLSI M38-A); type: cell-based; conditions: Microsporum canis isolate UW10
Procedure: as §1

[6] = system: Aspergillus fumigatus; assay: microbe, parasite or virus in culture
[7] = system: Aspergillus fumigatus; assay: Checkerboard microdilution synergy (FIC); type: cell-based; conditions: for MIC: Aspergillus fumigatus
[8] = system: Aspergillus terreus; assay: microbe, parasite or virus in culture
[9] = MM:TM with Itraconazole, isolate F11628 (Resistance), […] 10^5 cells/mL
[10] = MM:TM with Itraconazole, isolate F16216 (Resistance), […] 10^5 cells/mL
[11] = MM:TM with ITRA, isolate 08-12-12-13 Cyp51 [TR34/L98H], Avg., 48 hours, 35° C.
[12] = MM:TM with ITRA, isolate 08-19-02-61 Cyp51 [TR34/L98H], Avg., 48 hours, 35° C.
[13] = MM:TM with ITRA, isolate 08-31-08-91 Cyp51 [TR34/L98H], Avg., 48 hours, 35° C.
[14] = MM:TM with ITRA, isolate 08-36-03-25 Cyp51 [TR34/L98H], Avg., 48 hours, 35° C.
[15] = MM:TM with ITRA, isolate 12-7505220 Cyp51 [TR34/L98H], Avg, 48 hours, 35° C.
[16] = MM:TM with ITRA, isolate 12-7505446 Cyp51 [TR34/L98H], Avg., 48 hours, 35° C.
[17] = MM:TM with ITRA, isolate D5 Cyp51 [G54E], Avg., 48 hours, 35° C.
[18] = MM:TM with ITRA, isolate D6 Cyp51 [G54V], Avg., 48 hours, 35° C.
[19] = MM:TM with ITRA, isolate D9 Cyp51 [M220K], Avg., 48 hours, 35° C.

Work on CCC(C)n1ncn(-c2ccc(N3CCN(c4ccc(OCC5COC(Cn6cncn6)(c6ccc(Cl)cc6Cl)O5)cc4)CC3)cc2)c1=O (stereo not drawn) [Itraconazole, itraconazole] yielded an MIC [1] of 0.13 µg/mL (≈ 0.184 µM), an MIC [2] of roughly 1 µM (≈ 0.706 µg/mL) and an MIC [3] of 1 µg/mL (≈ 1.42 µM). For the same molecule, the MIC [4] was 0.13 µg/mL (≈ 0.184 µM), the MIC [5] was 1 µg/mL (≈ 1.42 µM) and the MIC ([6]; 48 h, A. fumigatus AF293, visually, 1 × 10^5 cells/mL, 35° C.) was 1 µg/mL and 1.4 µM. For the same molecule, the MIC ([6]; 48 h, A. fumigatus CEA10, visually, 1 × 10^5 cells/mL, 35° C.) was > 1 µg/mL and > 1.4 µM, the MIC ([6]; 48 h, A. fumigatus F11628, visually, 1 × 10^5 cells/mL, 35° C.) was 48 µg/mL and 68.5 µM and the MIC ([6]; 48 h, A. fumigatus F16216, visually, 1 × 10^5 cells/mL, 35° C.) was 32 µg/mL and 45.3 µM. The MIC ([6]; A. fumigatus AF293) was 1.4 µM (≈ 0.988 µg/mL), the MIC ([6]; A. fumigatus CEA10) was greater than 1.4 µM and the MIC ([6]; A. fumigatus F11628) was 68 µM (≈ 48 µg/mL). It also gave an MIC ([6]; A. fumigatus F16216) of 45.3 µM (≈ 32 µg/mL), an MIC ([6]; azole resistant strain F11628) greater than 45 µM and an MIC ([6]; strain F16216) of 45.3 µM (≈ 32 µg/mL). For the same molecule, the MIC azole combination ([7]; 08-19-02-61 Cyp51 [TR34/L98H], ITRA in combination with MM:TM, OD600, 48 h, 35° C.) was >48 µg/mL and 48 µg/mL, the FICazole ([7]; 08-19-02-61 Cyp51 [TR34/L98H], ITRA with MM:TM) was 1.000 and 0.500 and the MIC azole combination ([7]; 08-31-08-91 Cyp51 [TR34/L98H], ITRA in combination with MM:TM, OD600, 48 h, 35° C.) was greater than 48 µg/mL. The FICazole ([7]; 08-31-08-91 Cyp51 [TR34/L98H], ITRA with MM:TM) was 1.000, the MIC azole combination ([7]; 08-36-03-25 Cyp51 [TR34/L98H], ITRA in combination with MM:TM, OD600, 48 h, 35° C.) was greater than 48 µg/mL and the FICazole ([7]; 08-36-03-25 Cyp51 [TR34/L98H], ITRA with MM:TM) was 1.000. For the same molecule, the FICazole ([7]; AF293, ITRA with MM:TM) was 0.143 and 0.198 and 0.210, the MIC ([7]; 48 h, CEA10, ITRA as single agent, 35° C.) was greater than 1 µg/mL and the MIC ([7]; 48 h, CEA10, MM:TM with Itraconazole, single agent, 48 h, read-out: MIC Alone) was greater than 1.4 µM. It also gave an MIC ([7]; 48 h, F11628, ITRA as single agent, 35° C.) of 48 µg/mL, an MIC ([7]; 48 h, F16216, ITRA as single agent, 35° C.) of 32 µg/mL and an MIC ([7]; 48 h, MM:TM with ITRA, […], Avg., 48 hours, 35° C.) of 1.06 µM. For the same molecule, the MIC [7, 9] was 48 µg/mL, the MIC [7, 10] was 32 µg/mL and the “MIC Combined” value ([7]; CEA10, MM:TM with Itraconazole in combination, 48 h) was 0.3 µM. The MIC azole combination ([7]; D5 Cyp51 [G54E], ITRA in combination with MM:TM, OD600, 48 h, 35° C.) was greater than 48 µg/mL, the FICazole ([7]; D5 Cyp51 [G54E], ITRA with MM:TM) was 1.000 and the MIC azole combination ([7]; D7 Cyp51 [WT], ITRA in combination with MM:TM, OD600, 48 h, 35° C.) was 0.19 µg/mL and 0.375 µg/mL. The FICazole ([7]; D7 Cyp51 [WT], ITRA with MM:TM) was 0.253 and 0.500, the MIC azole combination ([7]; D9 Cyp51 [M220K], ITRA in combination with MM:TM, OD600, 48 h, 35° C.) was greater than 48 µg/mL and the FICazole ([7]; D9 Cyp51 [M220K], ITRA with MM:TM) was 1.000. For the same molecule, the MIC azole combination ([7]; F11628, ITRA in combination with MM:TM, OD600, 48 h, 35° C.) was 1.06 µM, the MIC azole combination ([7]; F16216, ITRA in combination with MM:TM, OD600, 48 h, 35° C.) was 85.03 µM and the FICazole ([7]; F16216, ITRA with MM:TM) was 0.750 and 1.000 and 0.938. For the same molecule, the MIC azole combination ([7]; MM:TM with ITRA, […], Avg., 48 hours, 35° C.) was 0.4 µM, the FICazole [7, 11] was 0.917 and the MIC azole combination [7, 11] was 70.15 µM. For the same molecule, the FICazole [7, 12] was 0.75, the MIC azole combination [7, 12] was 102.04 µM and the FICazole [7, 13] was 1.000. The MIC azole combination [7, 13] was greater than 68.02 µM, the FICazole [7, 14] was 1.000 and the MIC azole combination [7, 14] was greater than 68.02 µM. It also gave an FICazole [7, 15] of 0.917, an MIC azole combination [7, 15] of 70.15 µM and an FICazole [7, 16] of 0.035. It also gave an MIC azole combination [7, 16] of 0.67 µM, an FICazole [7, 17] of 1.000 and an MIC azole combination [7, 17] greater than 68.02 µM. It also gave an FICazole [7, 18] of 0.172, an MIC azole combination [7, 18] of 18.96 µM and an FICazole [7, 19] of 1.000. For the same molecule, the MIC azole combination [7, 19] was greater than 68.02 µM, the FICazole [7, 9] was 0.008 and the FICazole [7, 10] was 1.000. For the same molecule, the “increase in efficacy in the presence of MM:TM” value ([7]; azole-resistant strain F11628) was greater than 100 fold, the MIC [8] was 1.4 µM (≈ 0.988 µg/mL) and the MIC ([8]; 48 h) was 1 µg/mL and 1.4 µM.
